Test results as given in US12599591B2, “Vemurafenib and salts thereof for use in the treatment of enteroviral infections” (Jyväskylän yliopisto, priority 2018, dated 2026).

Key:
viral protease 3C = viral protease 3C (Coxsackievirus B3, UniProt P03313); experiment: Viral protease 3C action on G3BP1 in Hela cell homogenate, western blotting; assay type: biochemical; conditions: 5, 10 or 20 μM, RT for 18 h
Protocol: (§1) FIG. 18. […] The results were detected by western blotting and known cellular targets for 2A and 3C, poly A binding protein (PABP) and stress granule assembly factor 1 (G3BP1) respectively, were immunolabeled. The results are representative of two separate experiments.
(§2) The reaction was carried out in buffer containing 20 mM HEPES (pH 7.4), 0.12 M KCH3COO, 4 mM Mg(CH3COO)2 and 5 mM DTT with or without vemurafenib (5, 10 or 20 μM) being present. The reactions were carried out at RT for 18 h, after which they were terminated by adding Laemmli sample buffer and heating at 100° C. for 9 min. The samples were run in 4-20% Miniprotean TGX stain free gel (Biorad). The gel was UV-activated for 5 min with Chemidoc MP (Biorad) to reveal the total protein amount, after which the proteins were transferred to PVDF membrane (Immobilon-P, Merck Millipore). Next, the blot was blocked o/n with 5% BSA in 0.05% tween in TBS. Poly A binding protein (PABP) was detected using 1:100 dilution of mouse anti-PABP (Santa Cruz). Stress granule assembly factor 1 G3BP1 was detected using 1:1000 dilution of mouse anti-G3BP1 (Santa Cruz).

EV1 [1] = experiment: Uncoating of radioactively labeled EV1 in endosomes of A549 cells, sucrose gradients; conditions: 5 μM, 4 h p.i.
[2] = system: Coxsackie virus B3 (CVB3); experiment: CVB3 infection of A549 cells, cell viability (CTG assay / crystal violet); assay type: cell-based, Nancy strain; conditions: 18 h post infection
Protocol: (§3) FIG. 1. […] A549 cells were treated for 1 h with different concentrations of vemurafenib before Echovirus 1 (EV1), Coxsackie virus B3 (CVB3) or Coxsackie virus A9 (CVA9) infection, and vemurafenib was present after addition of viruses. Further, non-infected control cells were included. After 18 h post infection, the cell viability was determined by cell viability Glo-titer assay according to the instructions by the manufacturer (CTG assay, which measures cellular ATP levels, Promega; left figure) or crystal violet staining as described before (right figure; Martikainen et al., 2015). Values are means±SD.
(§4) Adenocarcinoma human alveolar basal epithelial (A549, ATCC) cells were cultured in Dulbecco's modified eagle medium (DMEM; Gibco) supplemented with 10% fetal bovine serum (FBS; Gibco), 1% Glutamax (Gibco) and 1% penicillin and streptomycin antibiotics (Gibco) for 24 h. […] In addition, non-infected control cells were included. After 18 h post infection (p.i.), the cell viability was determined by cell titer-Glo assay according to the instructions by the manufacturer (CTG assay, which measures cellular ATP levels, Promega; left figure) or crystal violet staining as described before (right figure; Martikainen et al. 2015). Values are means±SD.

EV1-infected A549 cells = assay type: cell-based, human
Echovirus 1 (EV1) = assay type: cell-based, Farouk strain
Poliovirus 3 = assay type: cell-based, polio-3 (vaccine strain); conditions: A549 cells, 2 days of infection, Cell Titer Glo
[3] = system: human rhinovirus B14 (HRVB14); experiment: HRVB14 replication in Hela cells by dsRNA (J2) labeling; conditions: 5 μM, 6 h at +34° C.
EV1 RNA = experiment: Transfection of EV1 genomic RNA into A549 cells, VP1 labeling; conditions: 5 μM, 6 h
[4] = system: human parechovirus 1 (HPEV1); assay type: cell-based; conditions: A549 cells, 5 μM, 6 h
HPEV1 IRES = assay type: cell-based, HPEV1 strain 22 Harris; conditions: Hela cells, 5 μM, 24 h
adenovirus 5 = experiment: Adenovirus 5 GFP transduction of A549 cells; conditions: 5 μM, 17 h
[5] = system: vesicular stomatitis virus (VSV); assay type: cell-based
EV1 IRES = assay type: cell-based, EV1 Farouk strain; conditions: Hela cells, 5 μM, 24 h
[6] = system: Coxsackie virus A9 (CVA9); experiment: CVA9 infection of A549 cells, cell viability (CTG assay / crystal violet); assay type: cell-based, Griggs strain; conditions: 18 h post infection
Protocol: as §3, §4

EV1 [7] = experiment: Time of addition assay, EV1 infection of A549 cells, VP1 labeling; assay type: cell-based; conditions: EV1, 5 μM, infection followed until 6 h p.i.
influenza A(H1N1)pdm09 = conditions: reported by McKimm-Breschkin et al.; cited from earlier work
EV1 particle = experiment: Real-time spectroscopic assay of EV1 particle opening (Sybr green II); conditions: 5 μM, 3 h at +37° C.
EV1 [8] = experiment: EV1 replication in A549 cells by dsRNA (J2) labeling; assay type: cell-based; conditions: 5 μM, 3, 4 or 6 h p.i.
[9] = system: CVB4 E2 diabetogenic strain; experiment: CVB4 infection of Min-6 pancreatic beta cells, crystal violet viability; assay type: cell-based; conditions: mouse pancreatic beta cell line Min-6, 0.25-7.5 μM, MOI of 1, crystal violet
CV-B4 E2 = experiment: CVB4 infection in mice, infectious viral titer in heart and pancreas; assay type: in vivo, Hsd:ICR(CD-1) female mice; conditions: 10 mg/kg intraperitoneally once a day for 5 days, sacrificed on day 6
[10] = system: respiratory syncytial virus (RSV); assay type: cell-based; conditions: Hela cells, 5 or 10 μM, 20 h
[11] = system: semliki forest virus (SFV); assay type: cell-based; conditions: Hela cells, 5 or 10 μM, 6 h
CVB4 = experiment: Persistent CVB4 infection of Panc-1 cells, viral titers and viral RNA; assay type: cell-based; conditions: 7.5 μM each 2 to 3 days
viral protease 2A = viral protease 2A (Coxsackievirus B3, UniProt P03313); experiment: Viral protease 2A action on PABP in Hela cell homogenate, western blotting; assay type: biochemical; conditions: 5, 10 or 20 μM, RT for 18 h
Sequence of viral protease 2A (P03313 852-1001): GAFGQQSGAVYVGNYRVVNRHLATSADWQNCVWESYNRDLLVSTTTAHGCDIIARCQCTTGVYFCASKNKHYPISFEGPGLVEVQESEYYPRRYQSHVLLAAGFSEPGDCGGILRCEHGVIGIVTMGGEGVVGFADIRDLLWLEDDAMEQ
Protocol: as §1, §2

3D polymerase of CVB3 = 3D polymerase of CVB3 (Coxsackievirus B3, UniProt P03313); experiment: RNA elongation assay with viral 3D polymerase; assay type: biochemical; conditions: various inhibitor concentrations, RT
Sequence of 3D polymerase of CVB3 (P03313 1724-2185): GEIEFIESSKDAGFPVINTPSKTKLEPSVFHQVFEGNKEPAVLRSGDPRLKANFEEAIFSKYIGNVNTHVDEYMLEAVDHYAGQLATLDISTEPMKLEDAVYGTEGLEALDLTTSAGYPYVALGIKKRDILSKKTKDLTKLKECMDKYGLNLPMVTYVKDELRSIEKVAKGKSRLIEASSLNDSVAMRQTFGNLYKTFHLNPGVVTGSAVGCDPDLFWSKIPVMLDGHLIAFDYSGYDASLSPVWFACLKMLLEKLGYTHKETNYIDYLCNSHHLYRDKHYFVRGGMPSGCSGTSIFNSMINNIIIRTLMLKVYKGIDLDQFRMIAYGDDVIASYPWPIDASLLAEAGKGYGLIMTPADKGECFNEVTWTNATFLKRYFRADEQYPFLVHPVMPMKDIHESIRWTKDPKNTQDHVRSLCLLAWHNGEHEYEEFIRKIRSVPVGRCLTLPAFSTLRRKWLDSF
Protocol: FIG. 19. […] An RNA elongation assay was used to study the effect of vemurafenib on viral 3D polymerase. […] At 15 min, GTP and ATP were added along with RNA2 (SEQ ID NO:2) allowing 3D+RNA1 complexes to incorporate ATP and GTP (forming +2 product) as well as initiate and incorporate GTP and RNA2 (forming +1 product). After 10 min, each reaction was “chased” to fully elongated product by adding the remaining NTPs.
An RNA elongation assay was used to study the effect of vemurafenib on viral 3D polymerase. […] At 15 min, GTP and ATP were added along with RNA2 (SEQ ID NO: 2) allowing 3D+RNA1 complexes to incorporate ATP and GTP (forming +2 product) as well as initiate and incorporate GTP and RNA2 (forming +1 product). After 10 min, each reaction was “chased” to fully elongated product by adding the remaining NTPs.

[12] = system: Coxsackie virus B (CVB) serotypes (1-6); experiment: CVB serotypes 1-6 infection of A549 cells, crystal violet viability; assay type: cell-based; conditions: 18 h of infection, dose dependent
Protocol: FIG. 2. […] Different concentrations of vemurafenib were tested against different Coxsackie virus B (CVB) serotypes (1-6) by treating A549 cells with the drug for 1 h and then infecting the cells with the viruses. Cell viability was determined after 18 h of infection using crystal violet staining. The results were normalized to control sample with no virus infection and 0 μM concentration of vemurafenib (CTRL). The values are means±SD.
Finally, the cell viability was determined using crystal violet staining. The results were normalized to control sample with no virus infection and 0 μM concentration of vemurafenib (CTRL). The values are means±SD.

[13] = 1 h pre-treatment, dose dependent

Sequence of viral protease 3C (P03313 1541-1723): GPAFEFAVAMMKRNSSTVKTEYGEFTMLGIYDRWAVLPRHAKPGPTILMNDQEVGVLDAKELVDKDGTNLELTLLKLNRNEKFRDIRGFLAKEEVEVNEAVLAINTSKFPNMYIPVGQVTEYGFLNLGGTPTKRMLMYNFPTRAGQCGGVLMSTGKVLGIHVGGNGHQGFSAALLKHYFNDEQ

SMILES: CCCS(=O)(=O)Nc1ccc(F)c(C(=O)c2c[nH]c3ncc(-c4ccc(Cl)cc4)cc23)c1F [vemurafenib, N-(3-(5-(4-chlorophenyl)-1H-pyrrolo[2,3-b]pyridine-3-carbonyl)-2,4-difluorophenyl)propane-1-sulfonamide]
- effect on viral protease 3C action (G3BP1) (viral protease 3C): does not have direct effects
- effect on uncoating of EV1 inside endosomes (EV1 [1]): does not affect the uncoating
- effect on CVB3 infection (cell viability) [2, 13]: rescued the cells
- concentration of maximal inhibition of CVB3 infection [2]: 5 µM
- effects on BRAF in the transcriptomics study (EV1-infected A549 cells): no effects
- effect on EV1-induced up- or downregulation of mRNAs (EV1-infected A549 cells; A549 cells, 6 h pi, Illumina Human HT-12 v4): attenuated almost all the effects of the virus
- effect on EV1 infection (cell viability) (Echovirus 1 (EV1)): prevents the infection
- effect on polio-3 infection (cell viability) (Poliovirus 3): efficiently rescued
- effect on HRVB14 replication (dsRNA J2 intensity) [3]: decreases the replication
- effect on infection after transfection of genomic RNA of EV1 (EV1 RNA): totally prevented infection
- effect on HPEV1 infection (VP1 positive cells) [4]: not effective
- effect on HPEV1 IRES-based translation (mCherry fluorescence) (HPEV1 IRES): does not have direct effects
- effect on adenovirus 5 transduction (GFP positive cells) (adenovirus 5): not effective
- effect on VSV infection (GFP infection percentage) [5]: not effective
- effect on EV1 IRES-based translation (mCherry fluorescence) (EV1 IRES): does not have direct effects
- effect on CVA9 infection (cell viability) [6, 13]: rescued the cells
- concentration of maximal inhibition of CVA9 infection [6]: 5 µM
- time of administration at which efficacy is lost (EV1 [7]): ≥ 3 h p.i.
- efficacy against influenza A(H1N1)pdm09 infection compared with oseltamivir (influenza A(H1N1)pdm09): greater efficacy than oseltamivir
- direct virucidal effect on EV1 particle (genome release) (EV1 particle): does not have direct virucidal effects
- effect on EV1 replication (replication intermediate, dsRNA) (EV1 [8]): prevented
- effect on CVB4 infection of Min-6 cells (cell viability) [9]: efficiently rescued
- levels of infectious CVB4 in heart tissue (CV-B4 E2): significantly decreased
- levels of infectious CVB4 in pancreas tissue (CV-B4 E2): significantly decreased
- effect on RSV infection (GFP infection percentage) [10]: not effective
- effect on SFV infection (GFP infection percentage) [11]: not effective
- presence of viral RNA in persistently infected Panc-1 cells (CVB4; qPCR at day 7, 9, 14 and 21): totally eradicated
- level of infectious viral particles (capsid) in persistently infected Panc-1 cells (CVB4; supernatant titers on HEp-2 cells): totally eradicated
- effect on viral protease 2A action (PABP) (viral protease 2A): does not have direct effects
- effect on CVB3 3D polymerase action (3D polymerase of CVB3): does not prevent its action, nor binding or elongation of the nascent RNA chain
- effect on infection by CVB serotypes 1 to 6 (cell viability) [12]: inhibited
